Measurements: patent US20250338846A1, “COMPOSITIONS HAVING PESTICIDAL UTILITY AND PROCESSES RELATED THERETO” (CORTEVA AGRISCIENCE, LLC, priority 2022, published 2025)

How the values were obtained:
Type in all cases: in vivo
[1] = system: Sweet Potato Whitefly (Bemisia tabaci, BEMITA); experiment: Bioassay 8: Sweet Potato Whitefly, spray on cotton seedlings at crawler emergence, nymphs counted 7-9 days after treatment; settings: AI alone 0.1 (10^-5) Wt %
Procedure: where X=No. of live aphids on solvent check plants and Y=No. of live aphids on treated plants. In Table B1 the “Expected % Control” was calculated using the method described in Colby S. R., Weeds, 1967, 15, 20-22. Bioassay 8: Sweet Potato Whitefly (Bemisia tabaci, BEMITA) (“SPW”).
(§1) Stock solutions were prepared with Formula One as well as for each of the active ingredients individually. Test solutions were prepared from the stock solutions. Test solutions were prepared containing Formula One, the individual active ingredients, and mixtures of Formula One with each of the active ingredients. The test solutions for Formula One and the individual active ingredients were prepared by adding 500 μL of stock solution to a 25 mL glass vial, then adding 500 μL of acetone, followed by the addition of 9 mL water with 0.025% Tween®) 20 to create a 0.001% (w/v) solution. The test solutions containing mixtures of Formula One and the individual active ingredients were prepared by adding 500 μL of the active ingredient stock solution to a 25 mL glass vial, followed by 500 μL of the Formula One stock solution, then by the addition of 9 mL water with 0.025% Tween®) 20 to create a test solution containing 0.001% (w/v) Formula One and 0.001% (w/v) of the active ingredient. Each test solution was serially diluted to create desired doses of test solutions (0.001% (w/v), 0.0001% (w/v), 0.00001% (w/v), 0.000001% (w/v), 0.0000001% (w/v), 0.000008% (w/v) and 0.00000001% (w/v)).
(§2) The test solutions were tested against SPW using the following procedure: Cotton seedlings grown in 3-inch pots, pruned so that only one true leaf remained, were used as test substrate. Adult B. tabaci were allowed to colonize the cotton plants and lay eggs for 24 hours after which all adults were removed from the plants using compressed air. Plants were monitored for egg development and, when crawler emergence was underway (>25% emergence based on visual examination using a microscope), the plants were sprayed using the test solutions and methods described above for green peach aphids (GPA). Treated plants were held in a holding room at approximately 25° C. and ambient relative humidity (RH) prior to grading. Evaluation was conducted by counting the number of developed 2-3 instar nymphs per plant under a microscope 7-9 days after treatment. Percent control was measured using Abbott's correction formula (W. S. Abbott, J. Econ. Entomol. 18 (1925), pp. 265-267) as follows:
where X=No. of live nymphs on solvent check plants and Y=No. of live nymphs on treated plants. In Table B2 the “Expected % Control” was calculated using the method described in Colby S. R., Weeds, 1967, 15, 20-22. Bioassay 9: Diamondback Moth (Plutella xylostella, PLUTMA) (DBM).

[2] = system: Western Tarnished Plant Bug (Lygus hesperus, LYGUHE); experiment: Bioassay 4: Western Tarnished Plant Bug, soaked green bean segments, living nymphs 3 days after application
Procedure: where X=No. of live nymphs on solvent check leaf discs and Y=No. of live nymphs on treated leaf discs. In Table B3 the “Expected % Control” was calculated using the method described in Colby S. R., Weeds, 1967, 15, 20-22. Bioassay 4: Western Tarnished Plant Bug (Lygus hesperus, LYGUHE) (“WTPB”).
(§3) Stock solutions were prepared with Formula One as well as for each of the active ingredients individually. Test solutions were prepared from the stock solutions. Test solutions were prepared containing Formula One, the individual active ingredients, and mixtures of Formula One with each of the active ingredients. The test solution for Formula One was prepared by adding 500 μL of the stock solution to a 25 mL glass vial, then adding 500 μL of acetone, followed by the addition of 9 mL water with 0.025% Tween®) 20 to create a 0.04% (w/v) solution. The test solutions of the individual active ingredients were prepared by adding 500 μL of stock solution to a 25 mL glass vial, then adding 500 μL of acetone, followed by the addition of 9 mL water with 0.025% Tween®) 20 to create a 0.005% (w/v) solution. The test solutions containing mixtures of Formula One and the individual active ingredients were prepared by adding 500 μL of the active ingredient stock solution to a 25 mL glass vial, followed by 500 μL of the Formula One stock solution, then by the addition of 9 mL water with 0.025% Tween®) 20 to create a test solution containing 0.04% (w/v) Formula One and 0.005% (w/v) of the active ingredient. Each test solution was serially diluted to create desired doses of test solutions (0.005% (w/v), 0.00125% (w/v), 0.0003125% (w/v), 0.000078% (w/v), and 0.0000195% (w/v)). In test solutions containing mixtures of Formula One and the active ingredients, the active ingredients were diluted as described above, but the Concentration of Formula One was held constant (0.04% (w/v)).
The test solutions were tested against WTPB using the following procedure: Fresh green beans were cut into segments approximately 1.5 inches long. Four bean segments were added to each 25 mL vial containing the test solutions and soaked for approximately 15 minutes. After soaking, a single bean fragment was removed and placed into a single well of a 32-well rearing tray (Frontier Agricultural Sciences™), on top of a round filter paper disc. A reference treatment (solvent check) was treated with the diluent only. Each treatment was replicated four times and the test treatments were held at approximately 26° C. and ambient relative humidity (RH) prior to grading. Bean segments were allowed to air dry for ˜30 minutes. Three WTPB nymphs were added to and contained in each well with a clear perforated adhesive lid. The total number of living WTPB nymphs was recorded 3 days after application. Scoring was based off the total number of living nymphs out of all four replicates. Percent control was measured using Abbott's correction formula (W. S. Abbott, J. Econ. Entomol. 18 (1925), pp. 265-267) as follows:
(§4) X=No. of live nymphs on solvent check and Y=No. of live nymphs on treated bean segments. In Table B4 the “Expected % Control” was calculated using the method described in Colby S. R., Weeds, 1967, 15, 20-22. Bioassay 5: Neotropical Brown Stink Bug (Euschistus heros, EUSCHE) (“BSB”).

[3] = system: Neotropical Brown Stink Bug (Euschistus heros, EUSCHE); experiment: whole plant or invertebrate
Procedure: as §4
as §3, with “The” for “The test solutions of the”, “(0.01%” for “(0.005%”, “0.0025%” for “0.00125%”, “0.000625%” for “0.0003125%”, “0.000156%” for “0.000078%”, “0.000039%” for “0.0000195%”
The test solutions that were tested against BSB were similar to those described above for WTPB. Fresh green beans were cut into segments approximately 1.5 inches long. Four bean segments were added to each test solution and soaked for approximately 15 minutes. After soaking, a single bean fragment was removed and placed into a single well of a 32-well rearing tray (Frontier Agricultural Sciences™), on top of a round filter paper disc. A reference treatment (solvent check) was treated with the diluent only. Each treatment was replicated four times and the test treatments were held at approximately 26° C. and ambient relative humidity (RH) prior to grading. Bean segments were allowed to air dry for ˜30 minutes. Three BSB nymphs were added to and contained in each well with a clear perforated adhesive lid. The total number of living BSB nymphs was recorded 3 days after application. Scoring was based off the total number of living nymphs out of all four replicates. Percent control was measured using Abbott's correction formula (W. S. Abbott, J. Econ. Entomol. 18 (1925), pp. 265-267) as follows:
where X=No. of live nymphs on solvent check and Y=No. of live nymphs on treated bean segments. In Table B5 the “Expected % Control” was calculated using the method described in Colby S. R., Weeds, 1967, 15, 20-22. Bioassay 6: Beet Armyworm (Spodoptera exigua, LAPHEG) (BAW), and Diamondback Moth (Plutella xylostella, PLUTMA) (DBM).

[4] = system: Sweet Potato Whitefly (Bemisia tabaci, BEMITA); experiment: Bioassay 2: Sweet Potato Whitefly, spray on cotton seedlings at crawler emergence, nymphs counted 7-9 days after treatment; settings: AI alone 1 (10-5) % w/v
Procedure: as §1, with “(w/v),” for “(w/v), 0.000008% (w/v)”
as §2
where X=No. of live nymphs on solvent check plants and Y=No. of live nymphs on treated plants. In Table B2 the “Expected % Control” was calculated using the method described in Colby S. R., Weeds, 1967, 15, 20-22. Bioassay 3: Western Flower Thrips (Frankliniella occidentalis, FRANOC) (“WFT”).

## CC1(C)C(C=C(Cl)Cl)C1C(=O)OC(C#N)c1ccc(F)c(Oc2ccccc2)c1 (stereo not drawn) [Cyfluthrin]
[1]
  Average % Control A1: 46.90%

## Spinetoram
[2]; AI alone 0.005 % w/v
  Average % Control AI: 0%
[3]; AI alone 0.000625 % w/v
  Average % Control AI: 8%
[4]
  Average % Control AI: 41%

## CC(c1ccc(C(F)(F)F)nc1)S(C)(=O)=NC#N (stereo not drawn) [Sulfoxaflor]
[2]; AI alone 0.0003125 % w/v
  Average % Control AI: 0%
[3]; Euschistus heros, 72 h, AI alone 0.0025 % w/v, read-out: Average % Control AI
  pest or weed control at 0.0025 % strength: 58%
